The record followed here is US7074789B2, “Kinase inhibitors” (Amgen Inc., priority 1999, dated 2006).

Holding throughout (format): biochemical
The target of assay [1] is T1, Kdr (Homo sapiens, UniProt P35968).
T1 construct: Kinases are expressed as either kinase domains or full length constructs; made in house
Kind of assay: Kinase inhibition assay (33P transfer), Kdr. Conditions: Table 3; read-out: KDR-1. The gist of the method:
(§1)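 Recombinant kinase-domain or full-length fusion proteins (GST or His tag) served as enzyme. Substrate poly(Glu,Tyr) 4:1 or poly(Arg,Ser) 3:1 was bound to the plate; transferred 33P was read by liquid scintillation following acid washing.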

Assay [2] addresses T2, Lck (Homo sapiens, UniProt P06239).
T2 construct: Kinases are expressed as either kinase domains or full length constructs; made in house
Description: Kinase inhibition assay (33P transfer), Lck. Conditions: Table 3; read-out: Lck-1. The gist of the method:
as §1

For assay [3], the target named is T3, Itk (Homo sapiens, UniProt Q08881).
T3 construct: Kinases are expressed as either kinase domains or full length constructs; made in house
T3 sequence (Q08881 1-620): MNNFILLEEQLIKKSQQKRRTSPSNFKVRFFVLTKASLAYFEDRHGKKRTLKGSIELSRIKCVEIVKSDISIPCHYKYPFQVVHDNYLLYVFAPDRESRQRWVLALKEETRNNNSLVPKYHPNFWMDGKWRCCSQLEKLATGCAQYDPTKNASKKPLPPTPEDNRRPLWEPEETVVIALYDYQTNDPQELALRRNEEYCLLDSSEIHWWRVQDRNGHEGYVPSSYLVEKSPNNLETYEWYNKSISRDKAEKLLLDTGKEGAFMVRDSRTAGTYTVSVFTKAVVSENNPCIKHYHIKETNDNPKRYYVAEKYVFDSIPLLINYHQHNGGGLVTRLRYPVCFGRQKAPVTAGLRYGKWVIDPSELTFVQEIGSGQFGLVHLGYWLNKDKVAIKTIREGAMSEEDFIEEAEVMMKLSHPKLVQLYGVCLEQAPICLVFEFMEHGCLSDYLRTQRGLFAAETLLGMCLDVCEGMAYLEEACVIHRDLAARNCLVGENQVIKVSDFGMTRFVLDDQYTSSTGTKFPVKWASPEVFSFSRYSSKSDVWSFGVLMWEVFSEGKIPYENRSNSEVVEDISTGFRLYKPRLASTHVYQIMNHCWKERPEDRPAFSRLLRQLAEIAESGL
Kind of assay: Kinase inhibition assay (33P transfer), Itk. Conditions: Table 3; read-out: Itk-1. The gist of the method:
(§2)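 Each enzyme, purified to near homogeneity by affinity chromatography, was incubated with ATP carrying 33P and a substrate polymer fixed to the plate. Unbound label was removed with dilute phosphoric acid (0.5%) before adding scintillant and counting. Potency is given as the compound level cutting label uptake by 50%.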

The target of assay [4] is T4, Zap-70 (Homo sapiens, UniProt P43403).
T4 construct: Kinases are expressed as either kinase domains or full length constructs; made in house
T4 sequence (P43403 1-619): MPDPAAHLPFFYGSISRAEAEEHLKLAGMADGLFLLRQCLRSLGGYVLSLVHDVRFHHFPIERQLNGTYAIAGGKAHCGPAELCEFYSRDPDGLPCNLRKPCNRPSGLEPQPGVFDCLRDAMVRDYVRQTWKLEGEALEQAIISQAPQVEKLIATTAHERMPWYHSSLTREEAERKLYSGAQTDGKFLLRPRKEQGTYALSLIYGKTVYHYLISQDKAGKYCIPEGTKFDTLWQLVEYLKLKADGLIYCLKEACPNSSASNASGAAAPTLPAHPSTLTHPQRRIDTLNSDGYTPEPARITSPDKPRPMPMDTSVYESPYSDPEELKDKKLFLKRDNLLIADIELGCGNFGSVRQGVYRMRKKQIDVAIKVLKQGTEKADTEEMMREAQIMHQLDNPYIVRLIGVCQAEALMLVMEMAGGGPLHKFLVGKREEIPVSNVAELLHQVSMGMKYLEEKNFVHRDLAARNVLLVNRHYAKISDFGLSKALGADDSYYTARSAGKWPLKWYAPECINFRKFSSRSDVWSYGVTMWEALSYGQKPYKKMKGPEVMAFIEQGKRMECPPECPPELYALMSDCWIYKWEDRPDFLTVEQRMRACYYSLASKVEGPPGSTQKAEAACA
Description: Kinase inhibition assay (33P transfer), Zap-70. Conditions: Table 3; read-out: Zap-1. A digest of the protocol: as §1

Assay [5] addresses T5, AKT (Homo sapiens, UniProt Q9Y243).
T5 construct: Kinases are expressed as either kinase domains or full length constructs; made in house
Kind of assay: Kinase inhibition assay (33P transfer), AKT. The note with it: Table 2, kinase inhibition class; read-out: AKT3-1. A digest of the protocol: as §1

Assay [6] has as its target T6, IGFR-1 (Homo sapiens, UniProt P08069).
T6 construct: Kinases are expressed as either kinase domains or full length constructs; made in house
Description: Kinase inhibition assay (33P transfer), IGFR-1. Conditions: Table 2, kinase inhibition class.

Assay [7] concerns the target T7, c-Met (Homo sapiens, UniProt P08581).
T7 construct: Kinases are expressed as either kinase domains or full length constructs; made in house
Kind of assay: Kinase inhibition assay (33P transfer), c-Met. The note with it: Table 2, kinase inhibition class; read-out: Met-1. The gist of the method: as §2

Assay [8] deals with T8, EGFR (Homo sapiens, UniProt P00533).
T8 construct: Kinases are expressed as either kinase domains or full length constructs; made in house
Kind of assay: Kinase inhibition assay (33P transfer), EGFR. Conditions: Table 2, kinase inhibition class; read-out: EGFR-1. The gist of the method: as §2

Assay [9] addresses T9, EPHB4 (Homo sapiens, UniProt P54760).
T9 construct: Kinases are expressed as either kinase domains or full length constructs; made in house
T9 sequence (P54760 16-987): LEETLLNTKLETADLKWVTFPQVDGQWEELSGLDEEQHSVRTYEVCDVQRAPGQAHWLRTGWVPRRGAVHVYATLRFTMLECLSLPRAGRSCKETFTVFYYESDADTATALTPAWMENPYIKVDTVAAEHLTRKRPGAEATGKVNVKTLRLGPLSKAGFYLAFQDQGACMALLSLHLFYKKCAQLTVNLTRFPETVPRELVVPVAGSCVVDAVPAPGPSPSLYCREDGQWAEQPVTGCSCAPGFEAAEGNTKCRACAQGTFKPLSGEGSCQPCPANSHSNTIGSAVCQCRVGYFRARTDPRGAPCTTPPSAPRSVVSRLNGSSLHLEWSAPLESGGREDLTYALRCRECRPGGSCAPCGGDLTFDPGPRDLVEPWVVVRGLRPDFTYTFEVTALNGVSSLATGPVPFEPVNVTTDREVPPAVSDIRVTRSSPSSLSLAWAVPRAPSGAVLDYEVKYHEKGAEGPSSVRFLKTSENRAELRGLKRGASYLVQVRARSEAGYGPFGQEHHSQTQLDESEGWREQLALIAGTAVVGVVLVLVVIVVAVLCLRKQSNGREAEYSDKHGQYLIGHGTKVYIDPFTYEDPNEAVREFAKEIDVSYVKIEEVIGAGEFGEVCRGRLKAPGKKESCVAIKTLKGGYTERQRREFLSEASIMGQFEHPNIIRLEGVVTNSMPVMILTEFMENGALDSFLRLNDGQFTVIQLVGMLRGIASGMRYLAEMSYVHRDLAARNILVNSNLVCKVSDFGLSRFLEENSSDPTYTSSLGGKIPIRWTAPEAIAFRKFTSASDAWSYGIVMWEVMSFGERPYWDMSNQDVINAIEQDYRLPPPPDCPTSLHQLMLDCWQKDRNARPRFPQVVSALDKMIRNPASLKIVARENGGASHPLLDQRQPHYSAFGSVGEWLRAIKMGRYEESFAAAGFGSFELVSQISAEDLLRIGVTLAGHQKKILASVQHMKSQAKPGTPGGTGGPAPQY
Description: Kinase inhibition assay (33P transfer), EPHB4. The note with it: read-out: EPHB4-1.

In assay [10] the target is T10, Tek (Homo sapiens, UniProt Q02763).
T10 construct: Kinases are expressed as either kinase domains or full length constructs; made in house
Kind of assay: Kinase inhibition assay (33P transfer), Tek. The note with it: read-out: Tek-1. The gist of the method:
as §2

Molecules are shown by their SMILES.

T1 sequence (P35968 20-1356, species assumed): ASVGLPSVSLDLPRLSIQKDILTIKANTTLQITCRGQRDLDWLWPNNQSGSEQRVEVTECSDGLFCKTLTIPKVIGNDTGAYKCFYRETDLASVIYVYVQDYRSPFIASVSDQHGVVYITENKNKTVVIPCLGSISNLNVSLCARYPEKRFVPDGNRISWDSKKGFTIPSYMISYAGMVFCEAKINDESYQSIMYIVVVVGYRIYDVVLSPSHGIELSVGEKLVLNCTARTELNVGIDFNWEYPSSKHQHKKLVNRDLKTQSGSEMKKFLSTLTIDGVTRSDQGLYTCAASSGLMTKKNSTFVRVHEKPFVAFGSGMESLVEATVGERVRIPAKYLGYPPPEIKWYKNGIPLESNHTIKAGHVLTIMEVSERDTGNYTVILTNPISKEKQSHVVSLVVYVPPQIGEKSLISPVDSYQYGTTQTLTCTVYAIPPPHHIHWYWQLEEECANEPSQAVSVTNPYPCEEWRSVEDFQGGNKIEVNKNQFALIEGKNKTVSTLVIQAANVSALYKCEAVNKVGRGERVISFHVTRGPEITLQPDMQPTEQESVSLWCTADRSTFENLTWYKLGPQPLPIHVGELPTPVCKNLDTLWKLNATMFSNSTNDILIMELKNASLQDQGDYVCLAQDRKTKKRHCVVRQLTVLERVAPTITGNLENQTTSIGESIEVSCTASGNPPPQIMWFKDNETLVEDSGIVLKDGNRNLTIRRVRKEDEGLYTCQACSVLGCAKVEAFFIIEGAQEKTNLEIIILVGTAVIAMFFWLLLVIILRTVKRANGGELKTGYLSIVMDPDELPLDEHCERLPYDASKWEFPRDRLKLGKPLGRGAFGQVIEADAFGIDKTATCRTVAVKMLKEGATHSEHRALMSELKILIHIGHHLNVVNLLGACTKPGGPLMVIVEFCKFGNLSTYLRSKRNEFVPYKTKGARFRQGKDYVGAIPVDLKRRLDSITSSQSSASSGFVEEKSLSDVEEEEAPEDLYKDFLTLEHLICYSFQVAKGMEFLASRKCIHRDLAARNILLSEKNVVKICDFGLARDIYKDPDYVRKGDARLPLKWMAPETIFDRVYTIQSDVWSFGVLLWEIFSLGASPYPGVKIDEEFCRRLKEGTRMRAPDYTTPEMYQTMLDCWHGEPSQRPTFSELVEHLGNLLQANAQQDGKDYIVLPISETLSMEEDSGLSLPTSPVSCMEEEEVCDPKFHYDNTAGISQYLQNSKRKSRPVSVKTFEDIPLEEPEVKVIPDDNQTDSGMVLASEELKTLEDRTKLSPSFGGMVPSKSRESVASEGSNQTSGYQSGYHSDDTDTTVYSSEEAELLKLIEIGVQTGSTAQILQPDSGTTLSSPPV
T5 sequence (Q9Y243 whole entry, the tested form may be a part): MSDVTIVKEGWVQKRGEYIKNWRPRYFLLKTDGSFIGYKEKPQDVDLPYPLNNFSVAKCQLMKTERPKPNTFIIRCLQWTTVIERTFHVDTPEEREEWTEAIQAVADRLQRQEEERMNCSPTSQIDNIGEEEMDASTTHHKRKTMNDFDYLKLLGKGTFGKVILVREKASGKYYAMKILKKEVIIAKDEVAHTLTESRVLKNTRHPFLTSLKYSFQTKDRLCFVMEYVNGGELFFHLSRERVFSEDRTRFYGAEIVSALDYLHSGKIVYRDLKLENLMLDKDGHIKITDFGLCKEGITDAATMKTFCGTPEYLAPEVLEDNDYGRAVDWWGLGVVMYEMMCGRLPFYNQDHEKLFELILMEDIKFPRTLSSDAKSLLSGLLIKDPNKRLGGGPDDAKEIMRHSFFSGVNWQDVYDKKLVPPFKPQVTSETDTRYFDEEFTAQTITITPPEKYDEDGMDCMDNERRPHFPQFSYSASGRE
T8 sequence (P00533 25-1210, species assumed): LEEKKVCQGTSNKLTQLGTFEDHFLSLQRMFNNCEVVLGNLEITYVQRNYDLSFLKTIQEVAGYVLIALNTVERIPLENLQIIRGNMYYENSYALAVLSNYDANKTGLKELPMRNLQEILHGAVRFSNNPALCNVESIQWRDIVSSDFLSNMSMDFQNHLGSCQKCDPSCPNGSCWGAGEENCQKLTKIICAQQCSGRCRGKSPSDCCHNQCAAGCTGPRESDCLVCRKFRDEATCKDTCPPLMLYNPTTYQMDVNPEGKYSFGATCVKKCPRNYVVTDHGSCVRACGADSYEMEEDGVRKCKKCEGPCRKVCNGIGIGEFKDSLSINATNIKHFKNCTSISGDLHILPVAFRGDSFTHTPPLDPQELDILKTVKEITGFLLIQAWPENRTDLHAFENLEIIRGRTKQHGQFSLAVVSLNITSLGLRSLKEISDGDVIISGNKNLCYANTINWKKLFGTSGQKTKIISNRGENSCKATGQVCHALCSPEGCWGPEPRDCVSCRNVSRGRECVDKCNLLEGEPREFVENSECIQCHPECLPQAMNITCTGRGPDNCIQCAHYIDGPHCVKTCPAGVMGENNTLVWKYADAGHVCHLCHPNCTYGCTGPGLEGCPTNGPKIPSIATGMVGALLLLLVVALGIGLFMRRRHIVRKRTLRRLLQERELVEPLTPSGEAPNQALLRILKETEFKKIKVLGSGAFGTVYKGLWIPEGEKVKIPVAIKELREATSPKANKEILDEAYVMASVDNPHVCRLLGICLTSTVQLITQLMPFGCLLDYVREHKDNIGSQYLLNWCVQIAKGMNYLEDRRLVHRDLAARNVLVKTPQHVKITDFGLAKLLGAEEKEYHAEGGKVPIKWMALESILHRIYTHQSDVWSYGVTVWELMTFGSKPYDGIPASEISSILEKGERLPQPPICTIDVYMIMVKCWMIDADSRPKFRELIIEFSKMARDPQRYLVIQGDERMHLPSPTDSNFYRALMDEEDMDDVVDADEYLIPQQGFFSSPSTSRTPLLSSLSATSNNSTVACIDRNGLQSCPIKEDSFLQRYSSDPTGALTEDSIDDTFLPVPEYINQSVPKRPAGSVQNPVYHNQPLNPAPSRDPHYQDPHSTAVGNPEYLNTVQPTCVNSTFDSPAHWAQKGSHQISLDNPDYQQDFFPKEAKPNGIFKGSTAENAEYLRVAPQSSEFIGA
T7 sequence (P08581 25-1390): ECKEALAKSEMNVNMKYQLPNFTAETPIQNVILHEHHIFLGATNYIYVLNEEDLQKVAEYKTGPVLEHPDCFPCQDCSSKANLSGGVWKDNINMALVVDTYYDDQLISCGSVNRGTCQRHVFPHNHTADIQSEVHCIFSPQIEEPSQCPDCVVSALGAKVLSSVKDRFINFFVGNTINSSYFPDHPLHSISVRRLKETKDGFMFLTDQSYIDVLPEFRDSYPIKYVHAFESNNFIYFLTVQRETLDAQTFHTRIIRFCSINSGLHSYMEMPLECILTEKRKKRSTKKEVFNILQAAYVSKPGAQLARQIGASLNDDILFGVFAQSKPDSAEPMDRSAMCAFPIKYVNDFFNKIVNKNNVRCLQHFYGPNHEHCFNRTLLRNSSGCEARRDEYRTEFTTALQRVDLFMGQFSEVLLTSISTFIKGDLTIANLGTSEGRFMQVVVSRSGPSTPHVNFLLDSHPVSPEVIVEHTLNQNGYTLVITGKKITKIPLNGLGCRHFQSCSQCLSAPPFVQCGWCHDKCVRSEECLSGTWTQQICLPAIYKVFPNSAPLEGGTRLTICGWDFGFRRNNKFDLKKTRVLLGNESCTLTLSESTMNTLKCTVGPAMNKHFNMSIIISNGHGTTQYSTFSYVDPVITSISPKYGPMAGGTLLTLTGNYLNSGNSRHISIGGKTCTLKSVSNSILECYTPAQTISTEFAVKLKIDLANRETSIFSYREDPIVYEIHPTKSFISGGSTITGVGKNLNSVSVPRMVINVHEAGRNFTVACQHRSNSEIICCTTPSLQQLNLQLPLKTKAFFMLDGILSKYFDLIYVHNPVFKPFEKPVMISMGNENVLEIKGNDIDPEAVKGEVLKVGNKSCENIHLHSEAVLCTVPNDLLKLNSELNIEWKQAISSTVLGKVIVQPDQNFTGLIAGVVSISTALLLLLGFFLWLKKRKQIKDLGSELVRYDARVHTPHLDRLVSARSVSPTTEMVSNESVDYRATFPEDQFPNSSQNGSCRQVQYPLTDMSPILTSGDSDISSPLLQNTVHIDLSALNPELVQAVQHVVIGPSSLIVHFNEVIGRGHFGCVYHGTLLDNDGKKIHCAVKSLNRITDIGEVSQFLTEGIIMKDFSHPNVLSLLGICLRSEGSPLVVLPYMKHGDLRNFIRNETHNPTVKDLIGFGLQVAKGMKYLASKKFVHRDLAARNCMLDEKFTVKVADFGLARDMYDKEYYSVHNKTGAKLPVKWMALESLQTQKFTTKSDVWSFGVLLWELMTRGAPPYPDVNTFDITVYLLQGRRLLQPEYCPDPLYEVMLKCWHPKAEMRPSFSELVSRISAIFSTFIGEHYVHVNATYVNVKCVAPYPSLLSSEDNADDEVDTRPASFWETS
T2 sequence (P06239 whole entry, species assumed, the tested form may be a part): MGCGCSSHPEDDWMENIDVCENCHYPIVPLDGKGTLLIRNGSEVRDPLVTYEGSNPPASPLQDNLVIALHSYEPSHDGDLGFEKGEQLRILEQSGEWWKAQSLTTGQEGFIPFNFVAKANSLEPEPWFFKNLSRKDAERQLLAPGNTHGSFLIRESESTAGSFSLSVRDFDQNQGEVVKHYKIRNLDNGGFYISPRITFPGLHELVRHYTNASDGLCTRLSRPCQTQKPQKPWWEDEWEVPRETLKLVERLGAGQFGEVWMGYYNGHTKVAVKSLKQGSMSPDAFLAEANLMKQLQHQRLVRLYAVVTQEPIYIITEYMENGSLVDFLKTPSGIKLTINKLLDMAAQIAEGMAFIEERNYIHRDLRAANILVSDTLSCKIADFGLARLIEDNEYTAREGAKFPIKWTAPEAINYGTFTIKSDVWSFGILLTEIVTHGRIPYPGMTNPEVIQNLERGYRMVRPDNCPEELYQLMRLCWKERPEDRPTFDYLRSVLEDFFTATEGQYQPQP

Regarding `OCCCNc1cc(-c2ncnc(Nc3cccc(OC(F)(F)C(F)F)c3)n2)ccn1` [Compound 372], the IC50 in assay [1], in assay [2], in assay [3], in [4], in [5] and in assay [6] was more than 10.3 µM each time. Also, the IC50 in assay [7], in assay [8], in assay [9] and in assay [10] was more than 10.3 µM each time.
As for `CCOc1ccc(Nc2ncnc(-n3c(N)nc4ccccc43)n2)cc1OCC` [Compound 299], the IC50 in assay [1] was 1.02 to 6.13 µM; in assay [2], 8.94 to 11.5 µM; in [3] it was more than 11.5 µM; in assay [4], 1.02 to 6.13 µM; in assay [5], 1.02 to 6.13 µM; in assay [6], 6.13 to 8.94 µM. Also, the IC50 in assay [7] was 1.02 to 6.13 µM; in assay [8], 6.13 to 8.94 µM; in assay [9], more than 11.5 µM; in [10], 6.13 to 8.94 µM.
For `COc1cc(Nc2ncnc(Nc3ccc(O)cc3C)n2)cc(OC)c1OC` [Compound 927], the IC50 in [1] is 1.04 to 6.26 µM; in assay [2] it was 6.26 to 9.13 µM; in assay [3], more than 11.7 µM; in assay [4], more than 11.7 µM; in assay [5] it was more than 11.7 µM; in assay [6], more than 11.7 µM. Further, the IC50 in assay [7] is more than 11.7 µM; in [8], 6.26 to 9.13 µM; in assay [9], more than 11.7 µM; in assay [10], more than 11.7 µM.
Take `COc1cc(Nc2ncnc(-c3ccsc3)n2)cc(OC)c1OC` [Compound 226]: the IC50 in assay [1] was 6.97 to 10.2 µM; in assay [2], 10.2 to 13.1 µM; in assay [3] it was more than 13.1 µM; in assay [4], 10.2 to 13.1 µM; in [5] it was more than 13.1 µM; in [6] it was more than 13.1 µM. Moreover, the IC50 in [7] was more than 13.1 µM; in assay [8], more than 13.1 µM; in assay [9], more than 13.1 µM; in assay [10], 10.2 to 13.1 µM.
Turning to `COc1cc(Nc2ncnc(N3CCC(O)CC3)n2)cc(OC)c1OC` [Compound 208], the IC50 in assay [1] was 1.11 to 6.64 µM; in assay [2], more than 12.5 µM; in [3], more than 12.5 µM; in assay [4], more than 12.5 µM; in assay [5], more than 12.5 µM; in [6], more than 12.5 µM. Moreover, the IC50 in assay [7] was 9.68 to 12.5 µM; in assay [8], more than 12.5 µM; in assay [9] it was more than 12.5 µM; in assay [10], more than 12.5 µM.
Turning to `O=c1[nH]c2ccccc2n1-c1ncnc(Nc2ccc(-c3cnco3)cc2)n1` [Compound 379], the IC50 in [1] is 9.42 to 12.1 µM; in assay [2], more than 12.1 µM; in assay [3] it was more than 12.1 µM; in assay [4] it was more than 12.1 µM; in assay [5] it was more than 12.1 µM; in assay [6], more than 12.1 µM. Also, the IC50 in [7], in assay [8], in [9] and in assay [10] was more than 12.1 µM throughout.
On to `COc1ccc(CNc2ncnc(Nc3cc(OC)c(OC)c(OC)c3)n2)cc1` [Compound 80], for which the IC50 in [1], in assay [2], in assay [3], in assay [4], in assay [5] and in [6] was more than 11.3 µM each time. In addition, the IC50 in [7], in assay [8], in [9] and in assay [10] was more than 11.3 µM throughout.
Regarding `COc1cc(Nc2ncnc(N(CC(=O)OC(C)(C)C)c3ccc(Cl)cc3)n2)cc(OC)c1OC` [Compound 291], the IC50 in assay [1] was 4.78 to 6.97 µM; in [2], 4.78 to 6.97 µM; in [3], more than 8.96 µM; in [4] it was more than 8.96 µM; in assay [5] it was more than 8.96 µM; in [6], more than 8.96 µM. Further, the IC50 in [7] is more than 8.96 µM; in [8], 0.797 to 4.78 µM; in assay [9], 6.97 to 8.96 µM; in [10], 6.97 to 8.96 µM.
As for `COc1cc(Nc2ncnc(Nc3ccc(S(=O)(=O)NC(C)=O)cc3)n2)cc(OC)c1OC` [Compound 255], the IC50 in assay [1] was less than 0.843 µM; in assay [2], more than 9.48 µM; in assay [3] it was more than 9.48 µM; in assay [4], more than 9.48 µM; in assay [5], more than 9.48 µM; in assay [6], more than 9.48 µM. The IC50 in assay [7], in [8], in [9] and in [10] was more than 9.48 µM each time.
With `COc1cc(Nc2ncnc(N(CC(=O)OC(C)(C)C)c3ccc4c(c3)OCO4)n2)cc(OC)c1OC` [Compound 309], the IC50 in [1] was 6.84 to 8.8 µM; in [2], 6.84 to 8.8 µM; in assay [3], more than 8.8 µM; in [4], more than 8.8 µM; in assay [5] it was more than 8.8 µM; in [6], more than 8.8 µM. The IC50 is more than 8.8 µM in assay [7], 4.69 to 6.84 µM in assay [8], more than 8.8 µM in [9] and more than 8.8 µM in assay [10].
As for `COc1cc(Nc2ncnc(Nc3[nH]ncc3-c3ccccc3)n2)cc(OC)c1OC` [Compound 369], the IC50 in [1] is more than 10.7 µM; in assay [2], 5.72 to 8.34 µM; in assay [3] it was 8.34 to 10.7 µM; in [4], more than 10.7 µM; in [5], more than 10.7 µM; in assay [6], more than 10.7 µM. In addition, the IC50 in assay [7], in assay [8], in assay [9] and in assay [10] was more than 10.7 µM in each case.
